Results from PMC9804470, “A Formylglycine‐Peptide for the Site‐Directed Identification of Phosphotyrosine‐Mimetic Fragments” (Chemistry (Weinheim an Der Bergstrasse, Germany), 2022).
Like-named read-outs stand apart in the source and are kept apart here. *1 amine or outer side, *2 acyl side, *3 side chain or, on linkers, in order; H or OH if unused. Where a SMILES comes first, the peptide text is derived from it. [ ]: non-standard residue; d: D form. The star is where a group is joined. ξ: configuration not given here. F2Pmp = N[C@@H](Cc1ccc(C(F)(F)P(=O)(O)O)cc1)C(=O)O; X3 = O=C1NC(=O)C(CC(N[*:1])C(=O)[*:2])C(=O)N1; X4 = O=S(=O)(Nc1ccc(*)cc1)C(F)(F)F; X2 = O=C(O)COc1ccc(*)cc1; X1 = O=C(O)Cc1ccc(*)cc1; Dap = NC[C@H](N)C(=O)O; ξDap = NCC(N)C(=O)O

How the values were obtained:
[1] = target: T1, catalytic domain of human PTP1B (Homo sapiens, UniProt P18031); experiment: Enzyme activity assay of PTP1B with fluorogenic substrate DiFMUP; type: biochemical; settings: SD
T1 construct: catalytic domain of human PTP1B (amino acids 1–321); His7 (N, cleaved yes); made in house; host or cells: E. coli Rosetta (DE3)
T1 sequence (P18031 1-321): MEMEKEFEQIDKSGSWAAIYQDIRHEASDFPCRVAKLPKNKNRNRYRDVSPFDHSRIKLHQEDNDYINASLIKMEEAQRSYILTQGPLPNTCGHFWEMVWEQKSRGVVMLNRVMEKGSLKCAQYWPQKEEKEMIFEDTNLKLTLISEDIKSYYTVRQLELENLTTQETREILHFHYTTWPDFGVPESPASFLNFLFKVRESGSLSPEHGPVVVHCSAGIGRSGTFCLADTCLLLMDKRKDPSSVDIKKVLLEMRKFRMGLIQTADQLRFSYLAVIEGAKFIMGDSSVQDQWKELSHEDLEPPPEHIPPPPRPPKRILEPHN
Protocol: Protein Expression and purification: DNA encoding the catalytic domain of human PTP1B (amino acids 1–321) was subcloned into the pQLinkH vector. The gene encoding the N‐terminal His7‐tagged protein was over‐expressed at 17 °C in E. coli Rosetta (DE3). […] The His7‐tag was cleaved with tobacco etch virus protease at 20 °C prior to the gel‐filtration step. The catalytic domain of human SHP2 (amino acids 225–541) was purified from E. coli B21 (DE3). The overexpressed protein was fused to an N‐terminal His10‐tag. Cells were harvested and resuspended in 25 mM Tris‐HCl (pH=7.5), 50 mM NaCl, 1 % (v/v) Triton X‐100, 10 % (v/v) glycerol, 1 mM DTT. After cell lysis, debris was removed by centrifugation at 12,000 rpm for 30 min. The supernatant was filtered prior to affinity purification with Ni‐NTA agarose (Qiagen). The slurry was washed with 50 mM Tris‐HCl (pH=8.0), 500 mM NaCl supplemented with 25 mM imidazole. Reasonably pure protein was eluted with 200–300 mM imidazole. The purification was completed by size‐exclusion chromatography with a Superdex 75 16/600 column (GE Healthcare) equilibrated with 20 mM HEPES‐NaOH (pH=7.5), 50 mM NaCl, 1 mM DTT.
(§1) Enzyme activity assays of SHP2 and PTP1B: The catalytic activity of SHP2 catalytic domain and PTP1B were monitored using the fluorogenic substrate DiFMUP (6,8‐difluoro‐4‐methylumbelliferyl phosphate). Phosphatase reactions were performed at room temperature in 384‐well black plate, clear flat bottom, low flange, non‐binding surface (Corning, Cat# 3766) using a final volume of 20 μL and the following assay buffer conditions: 50 mM MOPS, pH=6.5, 200 mM NaCl, 50 μM TCEP, 0.03 % Tween‐20 (freshly added prior to each measurement). Test compounds were dissolved in DMSO or buffer at stock concentrations of 50, 20 or 10 mM and serially diluted. Enzyme (5 nM PTP1B or 2.5 nM SHP2 catalytic domain) and different concentrations of the tested compounds were incubated in buffer for 30–60 min at room temperature. Measurements were performed with a final concentration of 2.5 % DMSO unless stated otherwise at 37 °C and were performed in triplicate. Enzymatic reactions were started by adding DiFMUP (Invitrogen, cat# D6567) concentrations matching the experimentally determined KM values of the enzymes of 67 μM (PTP1B) or 72 μM (SHP2). Samples were excited at a wavelength of 360 nm and emitted fluorescence was recorded at 460 for 10 min using a microplate reader (infinite M1000 Pro, Tecan). Initial slope of fluorescence was determined in triplicate and IC50 values were calculated with GraphPad Prism 5. Determined IC50 values were converted into the corresponding KI values applying the Cheng Prusoff equation KI =IC50 /(1+[S]/KM ).

[2] = target: T2, catalytic domain of human SHP2 (Homo sapiens, UniProt Q06124); experiment: Enzyme activity assay of SHP2 catalytic domain with fluorogenic substrate DiFMUP; type: biochemical
T2 construct: catalytic domain of human SHP2 (amino acids 225–541); His10 (N); made in house; host or cells: E. coli B21 (DE3)
T2 sequence (Q06124 225-541): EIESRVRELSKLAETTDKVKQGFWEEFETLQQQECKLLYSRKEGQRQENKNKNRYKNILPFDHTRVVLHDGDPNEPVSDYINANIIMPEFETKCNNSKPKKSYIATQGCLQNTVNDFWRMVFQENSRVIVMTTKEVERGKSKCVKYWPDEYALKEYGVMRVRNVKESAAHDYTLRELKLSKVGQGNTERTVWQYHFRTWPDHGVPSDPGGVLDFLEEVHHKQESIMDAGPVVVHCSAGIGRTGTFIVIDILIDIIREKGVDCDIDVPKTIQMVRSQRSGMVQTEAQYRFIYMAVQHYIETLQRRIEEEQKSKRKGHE
Protocol: Enzyme activity assays of SHP2 and PTP1B: The catalytic activity of SHP2 catalytic domain and PTP1B were monitored using the fluorogenic substrate DiFMUP (6,8‐difluoro‐4‐methylumbelliferyl phosphate). Phosphatase reactions were performed at room temperature in 384‐well black plate, clear flat bottom, low flange, non‐binding surface (Corning, Cat# 3766) using a final volume of 20 μL and the following assay buffer conditions: 50 mM MOPS, pH=6.5, 200 mM NaCl, 50 μM TCEP, 0.03 % Tween‐20 (freshly added prior to each measurement). Test compounds were dissolved in DMSO or buffer at stock concentrations of 50, 20 or 10 mM and serially diluted. Enzyme (5 nM PTP1B or 2.5 nM SHP2 catalytic domain) and different concentrations of the tested compounds were incubated in buffer for 30–60 min at room temperature. […] Enzymatic reactions were started by adding DiFMUP (Invitrogen, cat# D6567) concentrations matching the experimentally determined KM values of the enzymes of 67 μM (PTP1B) or 72 μM (SHP2). Samples were excited at a wavelength of 360 nm and emitted fluorescence was recorded at 460 for 10 min using a microplate reader (infinite M1000 Pro, Tecan). Initial slope of fluorescence was determined in triplicate and IC50 values were calculated with GraphPad Prism 5. Determined IC50 values were converted into the corresponding KI values applying the Cheng Prusoff equation KI =IC50 /(1+[S]/KM ).

[3] = test system: HGF‐induced tyrosine phosphorylation of ERK 1/2 in HeLa cells; experiment: Western blot of p-ERK in HGF-stimulated HeLa cells; type: cell-based; settings: 1 h treatment; for Concentration giving (complete) dephosphorylation of Erk / inhibition of Erk phosphorylation: HGF 20 ng/well, Western blot p-ERK
Protocol: Cellular experiments: HeLa cells were cultivated in DMEM buffer with 10 % FCS in 75 cm^2 cell culture flasks at 37 °C, 5 % CO2. At confluency of about 75 %, cells were seeded in a density of 250,000 cells/mL in 6‐well plates and incubated for 24 h. Subsequently, medium was removed and replaced by DMEM buffer with 0.1 % BSA (1 mL per well) and incubated for another 16 h. Hepatocyte growth factor (HGF, 20 ng/well) and test compounds in different final concentrations (1 μL, in DMSO) were added. Control wells received the same amount of DMSO (final concentration 0.1 %) or no addition. Plates were incubated for 1 h, then washed with cold PBS and shaken with lysis buffer (mPer reagent ThermoScientific # 78501 with 1 mM NaF, 2 mM Na3VO4, 25× protease inhibitor) for 5 min. Cell lysates were transferred to Eppendorf cups and centrifuged at 4 °C with 10,000 g for 10 min. […] The blot was incubated with anti‐phospo‐ERK as primary antibody (Cell Signaling # 9106, dilution 1 : 2000 in TBS‐Tween/ 2 % BSA) overnight at 4 °C, washed 3×5 min with TBS‐Tween, and incubated with anti‐mouse IgG‐hrp as secondary antibody (Santa Cruz # sc2031, 1 : 6000 in TBS‐ Tween/ 2 % BSA, RT, 1.5 h). The blot was again washed 3×5 min with TBS‐Tween and imaged with the ECL system (ThermoScientific # 34080) at Syngene PXi Imager. From the same lysis sample, under the same conditions, ERK 1/2 and β‐tubulin were blotted. For β‐tubulin, the antibody incubation time was adjusted to 2 h at RT.

PTP1B = target: T3, PTP1B (Homo sapiens, UniProt P18031); experiment: Dynamic ligation screening of nucleophilic fragments with formylglycine peptide 3, PTP1B; type: biochemical; settings: 3 100 μM pre-incubated 5 min, fragment 200 μM, 30 min RT before DiFMUP, triplicates
T3 construct: catalytic domain of human PTP1B (amino acids 1–321); His7 (N, cleaved yes); made in house; host or cells: E. coli Rosetta (DE3)
T3 sequence (P18031 1-321): T1 sequence (P18031 1-321)
Protocol: as §1
Dynamic ligation screening of nucleophilic fragments with 3: Under assay conditions described above, PTP1B or SHP2 were pre‐incubated with 3 (100 μM) for 5 min. Subsequently, (200 μM) of the respective fragments were added and the resulting mixtures were incubated for 30 min at RT, prior to DiFMUP addition.

Compound	Ki ([1]; read-out: KI PTP1B) [µM]	Enhancement of inhibition of PTP1B by fragment in combination with peptide 3 (fragment ligation assay) (PTP1B)	other results
CC(=O)N[C@@H](CC(=O)O)C(=O)N[C@@H](C)C(=O)N[C@@H](CC(=O)O)C(=O)N[C@@H](CCC(=O)O)C(=O)N[C@@H](Cc1ccc(C(F)(F)P(=O)(O)O)cc1)C(=O)N[C@@H](CC(C)C)C(N)=O [Compound 2, Ac-DADE-(PDFM-F)-L-NH2, reference compound] (Ac-DADE[F2Pmp]L-NH2)	1.4 ± 0.4		
CC(=O)N[C@@H](CC(=O)O)C(=O)N[C@@H](C)C(=O)N[C@@H](CC(=O)O)C(=O)N[C@@H](CCC(=O)O)C(=O)NC(CNc1ccc(CC(=O)O)cc1)C(=O)N[C@@H](CC(C)C)C(N)=O (stereo partly drawn) [Compound 15] (Ac-DADE[ξDap](X1)L-NH2)	138 ± 21		
CC(=O)N[C@@H](CC(=O)O)C(=O)N[C@@H](C)C(=O)N[C@@H](CC(=O)O)C(=O)N[C@@H](CCC(=O)O)C(=O)NC(CNc1ccc(OCC(=O)O)cc1)C(=O)N[C@@H](CC(C)C)C(N)=O (stereo partly drawn) [Compound 16] (Ac-DADE[ξDap](X2)L-NH2)	213 ± 21		
CC(=O)N[C@@H](CC(=O)O)C(=O)N[C@@H](C)C(=O)N[C@@H](CC(=O)O)C(=O)N[C@@H](CCC(=O)O)C(=O)NC(CC1C(=O)NC(=O)NC1=O)C(=O)N[C@@H](CC(C)C)C(N)=O (stereo partly drawn) [Compound 17] (Ac-DADE[X3]L-NH2)			Ki [1]: 123 ± 16 µM
CC(=O)N[C@@H](CC(=O)O)C(=O)N[C@@H](C)C(=O)N[C@@H](CC(=O)O)C(=O)N[C@@H](CCC(=O)O)C(=O)N[C@@H](CNc1ccc(NS(=O)(=O)C(F)(F)F)cc1)C(=O)N[C@@H](CC(C)C)C(N)=O [Compound 18] (Ac-DADE[Dap](X4)L-NH2)	202 ± 21		
O=C1/C(=N\Nc2ccc(NS(=O)(=O)C(F)(F)F)cc2)C(c2ccc([N+](=O)[O-])cc2)=NN1c1ccc([N+](=O)[O-])cc1 [Compound 22]			Ki ([2]; DiFMUP 72 μM (= KM), enzyme 1.5 nM, triplicate, from IC50 by Cheng-Prusoff (IC50/2), read-out: KI SHP2 (Table 2, footnote a)): 5.9 µM; Effect on HGF‐induced tyrosine phosphorylation of ERK 1/2 ([3]; Western blot, DMSO control): decreased; Concentration giving (complete) dephosphorylation of Erk / inhibition of Erk phosphorylation [3]: 25 µM
O=C(O)COc1ccc(N/N=C2\C(=O)N(c3ccc([N+](=O)[O-])cc3)N=C2c2ccc([N+](=O)[O-])cc2)cc1 [Compound 23, (Z)‐2‐(4‐(2‐(1,3‐Bis‐(4‐nitrophenyl)‐5‐oxo‐1,5‐dihydro‐4H‐pyrazol‐4‐ylidene)‐hydrazinyl)‐phenoxy)‐acetic acid]			Ki ([2]; catalytic domain of SHP2, DiFMUP, from IC50 by Cheng-Prusoff, GS-493 sentence carries ref 26, read-out: KI SHP2): 0.275 µM; Concentration giving (complete) dephosphorylation of Erk / inhibition of Erk phosphorylation [3]: > 100 µM
Nc1ccc(C(=O)O)cc1 [Compound F5, 4‐amino benzoic acid]		inactive	
Nc1ccc(C(F)(F)F)cc1 [Compound F8, 4‐amino‐phenyl‐trifluoromethane]		inactive	
O=P(O)(O)C(F)(F)C1CCNCC1 [Compound F9, 4‐piperidinyl‐difluoromethyl phosphonate]		inactive	
Nc1ccccc1 [aniline, reference compound]		entirely inactive	
N‐(4‐aminophenyl)‐sulfonic acid [Compound F6]		inactive	
